Data published in patent US4382888A, “Tryptophan derivative and process for production thereof” (Ajinomoto Company Incorporated, priority 1978, dated 1983).

What was measured:
thermolysin = thermolysin (Bacillus thermoproteolyticus, UniProt P00800); assay: inhibitory activity against thermolysin (casein digestion, Folin reagent); format: biochemical, genus Bacillus
Protocol: (§1) A mixture of 0.25 ml of sample solution in 0.05 M phosphate buffer at pH 7.5 and 0.25 ml of thermolysin solution (20 μg/ml in the same buffer was incubated for 10 minutes at 37° C. The mixture was added with 1.5 ml of 1.33% Hammarsten casein solution in 0.1M phosphate buffer (pH 7.0) and incubated for 10 minutes at 37° C. By the addition of 2 ml of 0.44 M trichloroacetic acid the reaction was stopped. After standing for 30 minutes at 37° C., the reaction mixture was filtered. To 1.0 ml of the filtrate 5 ml of 0.55 M Na2 CO3 and 1 ml of 2 times diluted Folin-Ciocaltean reagent were added. After standing for 60 minutes at 37° C., the absorbance (Is) was measured at 660 mμ. The blank value (Ib) was taken by carrying out the reaction using 0.25 ml of 0.05M phosphate buffer (pH 7.5) instead of thermolysin. […] Inhibition rate against enzyme activity is calculated by the following equation: [formula] Now, inhibitory activity against metallo proteinase produced by Pseudomonas aeruginosa can be measured in the same manner as above wherein amounts of enzyme used is established so as to have following value. A value of (Es-Eb) according to method for measuring inhibitory activity is 0.6 wherein cell length used for the measurement of absorbance is 1 cm.

[1] = test system: metallo proteinase produced by Pseudomonas aeruginosa; assay: inhibitory activity against metallo proteinase of Pseudomonas aeruginosa (casein digestion); format: biochemical
Protocol: as §1

[2] = test system: metallo proteinase produced by Aspergillus oryzae; assay: inhibitory activity against metallo proteinase of Aspergillus oryzae; format: biochemical
pepsin = pepsin (Sus scrofa, UniProt P00791); assay: inhibitory activity against pepsin; format: biochemical
trypsin = target: T1, trypsin (Bos taurus, UniProt P00760); assay: inhibitory activity against trypsin; format: biochemical
T1 sequence (P00760 24-246): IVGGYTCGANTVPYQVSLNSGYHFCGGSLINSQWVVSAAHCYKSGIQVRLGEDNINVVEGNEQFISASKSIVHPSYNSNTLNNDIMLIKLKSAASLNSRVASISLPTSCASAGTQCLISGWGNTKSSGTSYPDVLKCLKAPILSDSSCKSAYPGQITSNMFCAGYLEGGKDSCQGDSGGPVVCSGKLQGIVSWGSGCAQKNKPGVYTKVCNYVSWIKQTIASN

chymotrypsin = chymotrypsin (Bos taurus, UniProt P00766); assay: inhibitory activity against chymotrypsin; format: biochemical
subtilis = assay: inhibitory activity against subtilis; format: biochemical
papain = target: T2, papain (Carica papaya, UniProt P00784); assay: inhibitory activity against papain; format: biochemical
T2 sequence (P00784 134-345): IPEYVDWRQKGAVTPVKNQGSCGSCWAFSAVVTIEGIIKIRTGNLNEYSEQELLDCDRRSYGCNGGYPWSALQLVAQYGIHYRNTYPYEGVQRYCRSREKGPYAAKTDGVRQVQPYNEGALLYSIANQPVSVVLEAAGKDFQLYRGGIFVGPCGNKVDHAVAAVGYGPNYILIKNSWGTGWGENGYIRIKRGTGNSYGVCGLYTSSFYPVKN

Solubility = format: physicochemical
[3] = Stability in aqueous solution; format: physicochemical
[4] = amount of compound in the assay

thermolysin, sequence (P00800 233-548): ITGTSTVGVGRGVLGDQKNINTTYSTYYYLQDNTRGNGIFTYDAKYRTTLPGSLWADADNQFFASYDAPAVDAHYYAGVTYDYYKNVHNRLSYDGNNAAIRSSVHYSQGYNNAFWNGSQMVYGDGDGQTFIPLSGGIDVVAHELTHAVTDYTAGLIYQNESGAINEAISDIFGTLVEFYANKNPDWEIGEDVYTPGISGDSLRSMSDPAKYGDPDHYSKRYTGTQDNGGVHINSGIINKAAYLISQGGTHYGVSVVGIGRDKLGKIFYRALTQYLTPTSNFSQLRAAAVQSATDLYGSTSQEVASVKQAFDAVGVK
pepsin, sequence (P00791 60-385): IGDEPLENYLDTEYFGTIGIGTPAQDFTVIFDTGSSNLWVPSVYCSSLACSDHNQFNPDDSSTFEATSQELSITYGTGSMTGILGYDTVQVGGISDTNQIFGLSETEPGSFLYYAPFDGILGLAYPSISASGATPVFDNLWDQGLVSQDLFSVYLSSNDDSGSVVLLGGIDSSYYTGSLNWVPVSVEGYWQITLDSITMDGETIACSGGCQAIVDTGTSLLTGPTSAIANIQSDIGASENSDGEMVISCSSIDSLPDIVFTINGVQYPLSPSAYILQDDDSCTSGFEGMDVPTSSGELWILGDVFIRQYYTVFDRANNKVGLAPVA

CC(C)C[C@H](NP(=O)(O)OC1O[C@@H](C)[C@@H](O)[C@@H](O)[C@H]1O)C(=O)N[C@@H](Cc1c[nH]c2ccccc12)C(=O)O (stereo partly drawn) [novel tryptophan derivative, N-(6-deoxy-L-talosyloxy hydroxyphosphinyl)-L-leucyl-L-tryptophan]
inhibiting activity (in words) (thermolysin): strongly inhibits
Amount necessary for inhibiting 50% of the enzyme activity (thermolysin; [4]): 0.35 µg
inhibiting activity (in words) [1]: strongly inhibits
Amount necessary for inhibiting 50% of the enzyme activity [1, 4]: 4 µg
inhibiting activity (in words) [2]: inhibits
inhibiting activity (in words) (pepsin): does not inhibit
inhibiting activity (in words) (trypsin): does not inhibit
inhibiting activity (in words) (chymotrypsin): does not inhibit
inhibiting activity (in words) (subtilis): does not inhibit
inhibiting activity (in words) (papain): does not inhibit
Solubility (Solubility; benzene): Insoluble
Solubility (Solubility; chloroform): Insoluble
Solubility (Solubility; ethanol): Soluble
Solubility (Solubility; ether): Insoluble
Solubility (Solubility; hexane): Insoluble
Solubility (Solubility; methanol): Soluble
Solubility (Solubility; water): Soluble
Stability ([3]; acidic aqueous solution): Unstable
Stability (remaining activity) ([3]; standing for 24 hours at pH 1): Activity is lost completely
Stability ([3]; weak acidic, neutral, or alkaline aqueous solution): Stable
